{"source": "patent US20240043860A1", "about": "“NOVEL HYDROXYPHENYLPYRUVATE DIOXYGENASE POLYPEPTIDES AND METHODS OF USE THEREOF” (Syngenta Crop Protection AG, priority 2020, published 2024)", "key": {"[1]": {"tested_on": "transgenic tobacco plants expressing mutant HPPD SEQ ID NO: 125", "assay": "spray test, herbicidal damage scoring", "format": "in vivo", "conditions": "Table 4.3, 7 days after treatment, 100=complete death, 0=no damage, one value per event", "protocol": "(§1) DNA sequences that encode these polypeptides (optimized for tobacco or, optionally, codon optimized according to a target crop such as soybean) were prepared synthetically. Each sequence was designed to include a 5′ fusion with TMV omega 5′ leader sequence such that they are flanked at the 5′ end with XhoI and at the 3′ end with KpnI to facilitate direct cloning into a suitable binary vector for Agrobacterium-based plant transformation.\n(§2) For example, a master plate of Agrobacterium tumefaciens containing the HPPD expressing the binary vector is used to inoculate 10 ml LB (L broth) containing 100 mg/l Rifampicin plus 50 mg/l Kanamycin using a single bacterial colony. This is incubated overnight at 28° C. shaking at 200 rpm. This entire overnight culture is used to inoculate a 50 ml volume of LB containing the same antibiotics. Again this is cultured overnight at 28° C. shaking at 200 rpm. The Agrobacterium cells are pelleted by centrifuging at 3000 rpm for 15 minutes and then resuspended in MS (Murashige and Skoog) medium containing 30 g/l sucrose, pH 5.9 to an OD […]=0.6. This suspension is dispensed in 25 ml aliquots into petri dishes.\n(§3) Once rooted, plantlets are transferred from agar and potted into 50% peat, 50% John Innes Soil No. 3 or, for example, MetroMix® 380 soil (Sun Gro Horticulture, Bellevue, WA) with slow-release fertilizer in 3 inch round or 4 inch square pots and left regularly watered to establish for 8-12d in the glass house. Glass house conditions are about 24-27° C. day; 18-21° C. night and approximately a 14h (or longer in UK summer) photoperiod.\n(§4) About 20-30 TO events are produced for a number of HPPD variant genes.\n(§5) Single copy events amongst the Ti plant lines are identified by their 3:1 segregation ratio (with respect to kanamycin and/or herbicide) and by quantitative RT-PCR. Seed from the thus selected Ti tobacco (var. Samsun) lines are sown in 3 inch diameter pots containing 50% peat and 50% John Innes Soil No. 3. […] HPPD expression levels were monitored by Western analysis.\n(§6) Tables 4.1-4.9 show the herbicidal damage scoring on transgenic tobacco plants 7 days after treatment. A score of 100=complete death and 0=no damage observed."}, "[2]": {"tested_on": "transgenic tobacco plants expressing mutant HPPD SEQ ID NO: 124", "assay": "spray test, herbicidal damage scoring", "format": "in vivo", "conditions": "Table 4.2, 7 days after treatment, 100=complete death, 0=no damage, one value per event", "protocol": "as §1, §2, §3, §4, §5, §6"}}, "note": "“And” between values parts separate entries of the source, which are not always exact repeats. Identical values can stand only once."}
{"smiles": "COc1ccc(-n2nc(C)cc(C(=O)C3C(=O)CCCC3=O)c2=O)cc1OC", "note": "[Herbicide C, dioxopyritrione]", "values": [{"measurement": "herbicidal damage scoring, Herbicide C (200 g/ha)", "setting": "[1]", "result": "60 and 80 and 75 and 85"}, {"measurement": "herbicidal damage scoring, Herbicide C (200 g/ha)", "setting": "[2]", "result": "60 and 65 and 50"}]}
